# “Also recorded” adds a separate entry of the source. Where a SMILES comes first, the peptide text is derived from it. The star is where a group is joined. Cbz = O=C(OCc1ccccc1)*
# Tests used:
# α-Synuclein [1] = test: α-Synuclein protein in iPSC-derived DaNs treated with lysosomal agonists (western blot); type: cell-based, human; conditions: for amount of α-Synuclein protein: DaNs from control lines; for amount of α-Synuclein protein / synuclein levels: treated for 3 days starting at day 27; for synuclein levels: EOSPD DaNs; for α-Synuclein levels: both control and PD DaNs, all treated lines
# Text: FIG. 5: Treatment with lysosomal agonists and Elevated p-PKCa in PD lines. […] Baseline levels of p-PKCa in d30 DaNs (b). Day 30 DaNs treated with PEP from multiple PD and control lines(c). Timecourse of PEP treatment and synuclein levels (d) Timecourse of PEP treatment SNCA (e) and TH (f) gene expression.
# To test if the Inventors could reduce synuclein levels in our EOSPD DANs through activation of lysosomal specific pathways, the Inventors selected 3 lysosomal agonists. […] Starting at day 27, DaNs were treated for 3 days with the above lysosomal agonists.
# TH enzyme = TH enzyme amount in iPSC-derived DaNs treated with lysosomal agonists (western blot); type: cell-based, human; conditions: both control and PD DaNs, treated for 3 days
# p-PKCa = test: Phosphorylated PKC alpha in iPSC-derived DaNs after PEP005 treatment (western blot); type: cell-based, human
# LAMP1 = LAMP1 protein in DaNs after PEP treatment; type: cell-based, human; conditions: PD cells
# LC3 = LC3 protein in DaNs after PEP treatment; type: cell-based, human; conditions: PD cells
# cleaved caspase 3 (CC3) = test: Cleaved caspase 3 in DaNs after PEP treatment; type: cell-based, human; conditions: DaNs on drug treatment, most easily observed in PD cells; listed as PEP
# Text: (§1) The elevated phosphorylation of PKCa was absent in the undifferentiated iPSCs and no clear pattern was evident in peripheral blood from the individual patients indicating specificity to the differentiated DaNs. […].
# (§2) It is likely that the toxicity of PEP is more specific to highly proliferative cells whereas our differentiated neurons are largely post mitotoic.
# SNCA = SNCA gene expression timecourse of PEP treatment in DaNs; type: cell-based, human; conditions: 4 hours after PEP treatment
# Procedure: (§3) FIG. 5: Treatment with lysosomal agonists and Elevated p-PKCa in PD lines. Western blot and relative band quantifications of d30 DaNs treated with indicated compounds for 72 hours (a). Baseline levels of p-PKCa in d30 DaNs (b). Day 30 DaNs treated with PEP from multiple PD and control lines(c). Timecourse of PEP treatment and synuclein levels (d) Timecourse of PEP treatment SNCA (e) and TH (f) gene expression. Confirmation of elevated synuclein and p-PKCa in addition control and PD lines (g)
# as §1
# TH [2] = test: TH gene expression timecourse of PEP treatment in DaNs; type: cell-based, human; conditions: roughly 8 hours after initial exposure
# Procedure: as §3, §1
# DaN cultures = type: cell-based, human; conditions: DaN cultures on drug treatment
# Text: as §2
# synuclein = test: In vivo synuclein in striatum after injection of PEP into the ventricles of WT mice; parameters: species or system mouse; conditions: WT mice, 0.3, 3 and 30 μM injected into the ventricles, 1 and 5 days post injection
# TH [3] = test: In vivo TH in striatum after injection of PEP into the ventricles of WT mice; parameters: species or system mouse; conditions: WT mice, 0.3, 3 and 30 μM injected into the ventricles, 1 and 5 days post injection
# PKC C1 domains = conditions: cited from earlier work
# [4] = test system: various cancer cell lines and primary acute myeloid leukaemia (AML) cells; conditions: cited from earlier work
# [5] = test system: leukemic cell lines and primary AML cells; conditions: by activating PKCδ and sustained activation of ERK1/2; cited from earlier work
# P53 = P53 level in DaN cultures under proteasome inhibition; type: cell-based, human; conditions: 24 hrs
# Text: (§4) […]. Western blot showing synuclein degradation under 24 hrs of MG132 proteosomal inhibitor (e). Western blot showing reduced LAMP1 protein in PD DaNs (f). […]. Data were normalized to 02iCTR for each differentiation and presented as a fold change (g). NIRF detection of oxidized dopamine from D30 DaN lysates (h)
# (§5) Protein degradation can be largely divided into protosomal and autophagy/lysosomal degradation pathways.
# α-Synuclein [6] = test: α-Synuclein level in DaN cultures under proteasome inhibition; type: cell-based, human; conditions: 24 hrs
# Text: as §4, §5
# neurons in Brain-Chip = type: cell-based, human
# α-Synuclein [7] = conditions: cited from earlier work
# PC12 cell model = conditions: cited from earlier work
# [8] = time-course, control and PD DaNs
structure (smiles),measurement,setting,value
"C/C=C(/C)C(=O)O[C@H]1C(C)=C[C@]23C(=O)[C@@H](C=C(CO)[C@@H](O)[C@]12O)[C@H]1[C@@H](C[C@H]3C)C1(C)C [PEP005, ingenol-3-angelate]",amount of α-Synuclein protein,α-Synuclein [1],significantly reduced
same,synuclein levels,α-Synuclein [1],substantially reduced
same,α-Synuclein levels,α-Synuclein [1],reduced
same,α-Synuclein levels,α-Synuclein [1]; listed as PEP,reduced synuclein in all treated lines
same,time in which α-Synuclein is degraded in response to drug treatment,α-Synuclein [1]; [8],≤ 24 h
same,amount of TH enzyme,TH enzyme,increased amount of TH enzyme
same,amount of TH enzyme,TH enzyme; listed as PEP,increase in the amount of TH
same,phosphorylation of PKCa,"p-PKCa; 1 μM for 3 days, DaNs from all iPSC lines",clearly ablated
same,PKC alpha phosphorylation signal,"p-PKCa; control and PD DaNs, at endpoint of 72 hours treatment",completely ablating this signal
same,time in which p-PKCa is degraded in response to drug treatment,p-PKCa; [8],≤ 24 h
same,LAMP1 response,LAMP1,does not appear to be replicated
same,LAMP1 response,LAMP1; listed as PEP,neither LAMP1 nor LC3 respond
same,LC3 response,LC3,neither LAMP1 nor LC3 respond
same,cleaved (active) caspase 3,cleaved caspase 3 (CC3),marked decrease; also recorded: decrease in the amount of active caspase 3
same,SNCA gene expression,SNCA,downregulated
same,TH gene expression,TH [2],upregulated
same,LDH,DaN cultures,nor do the Inventors see an increase in LDH
same,synuclein in mouse striatum,synuclein,Reduction of synuclein
same,TH in mouse striatum,TH [3],increase in TH
same,selectivity for individual PKC isoforms,PKC C1 domains,no selectivity
same,proliferation,[4],inhibiting proliferation
same,apoptosis,[5],induces apoptosis
CC(C)C[C@@H](C=O)NC(=O)[C@H](CC(C)C)NC(=O)[C@H](CC(C)C)NC(=O)OCc1ccccc1 [MG132] (Cbz-Leu-Leu-Leu-aldehyde),P53 level,P53,accumulation of P53
same,α-Synuclein levels,α-Synuclein [6],no substantial change
NC1=N[C@H](O)[C@H]2[C@H]3O[C@]4(O)O[C@@H]([C@@H](O)[C@@]2(N1)[C@@H]4O)[C@]3(O)CO [tetrodotoxin],neuron activity (calcium imaging),neurons in Brain-Chip,Neuron activity ablated
OC[C@H]1O[C@H](O[C@H]2O[C@H](CO)[C@@H](O)[C@H](O)[C@H]2O)[C@H](O)[C@@H](O)[C@@H]1O [Trehalose],amount of α-Synuclein protein,α-Synuclein [1],not Trehalose significantly reduced
same,synuclein levels,α-Synuclein [1],only the PKC agonist PEP005 substantially reduced synuclein levels
same,clearance of α-Synuclein,α-Synuclein [7],promote clearance
C=CCNc1ncnc2ccc(Br)cc12 [SMER28],amount of α-Synuclein protein,α-Synuclein [1],significantly reduced
same,synuclein levels,α-Synuclein [1],only the PKC agonist PEP005 substantially reduced synuclein levels
same,Huntington and α-Synuclein aggregates,PC12 cell model,reduce

# From patent US11981918B2, “Differentiation technique to generate dopaminergic neurons from induced pluripotent stem cells” (CEDARS-SINAI MEDICAL CENTER, priority 2018, dated 2024)
